Measured values reported in patent US20240343819A1, “METHODS OF TREATING MULTIPLE MYELOMA” (Seagen Inc., priority 2021, published 2024).
Where “and” joins values, the source holds several entries; their conditions need not be identical. Equal values may be shown once.

Tests used:
NCI-H929 cells [1] = assay: BCMA expression by flow cytometry after GSI incubation; type: cell-based; settings: 1 μM DAPT, 24 hrs, vs without
Molp-8 cells [2] = assay: as above; type: cell-based; settings: 1 μM DAPT, 24 hrs, vs without
NCI-H929 cells [3] = assay: FcγRIII signaling surrogate assay (Promega ADCC reporter bioassay, CD16A-Jurkat effector cells); type: cell-based; settings: antibody dose titrations +/- GSI (DAPT), 6:1 effector-to-target ratio, overnight
Experimental: (§1) NCI-H929 or Molp-8 MM target cells were incubated with and without 1 μM DAPT for 24 hrs. […] FcγRIII signaling was determined using a surrogate assay as manufacturer describes (Promega ADCC reporter bioassay cat #G9302). Cells were bound with antibody dose titrations+/−GSI for 30 minutes at 37° C. CD16A-Jurkat effector cells were then added with a 6:1 effector-to-target cell ratio. After an overnight incubation, the assay was developed with Bio-Glo and relative luminescence units (RLU) were measured on an Envision plate reader. […] Enhanced signaling is the first step in the primary mechanism of action of SEA-BCMA. This signaling can translate to increased anti-MM cell lysis through ADCC.

Molp-8 cells [4] = assay: as above; type: cell-based; settings: antibody dose titrations +/- GSI (DAPT), 6:1 effector-to-target ratio, overnight
Experimental: as §1

patients = settings: cited from earlier work
Multiple myeloma cells [5] = assay: BCMA expression after nirogacestat incubation; type: cell-based; settings: 0.2 μM nirogacestat, 24 hours, vs without
Source text: (§2) These pre-clinical data supported the combination of SEA-BCMA with nirogacestat in clinical studies.

Multiple myeloma cells [6] = assay: ADCC with NK effector cells enriched from normal donor PBMC; type: cell-based; settings: nirogacestat treated multiple myeloma cells combined with NK effector cells
Source text: as §2

[7] = tested on: BCMA-expressing NCI-H929 cells; assay: NF-κB p65 activity ELISA of nuclear extract (TransAM NFκB Chemi p65); type: cell-based
Experimental: The secondary mechanism of action of SEA-BCMA is to block BCMA proliferative cell signaling. Increased BCMA from GSI treatment is expected to induce increased BCMA signaling. Therefore, the block of this enhanced signaling by SEA-BCMA was tested. BCMA-expressing NCI-H929 cells were serum-starved with and without 0.2 μM Nirogacestat (purchased from SelleckChem) for 16 hrs. Cells were then bound with and without 20 μg/mL SEA-BCMA and incubated with and without 1 μg/ml recombinant human APRIL (R&D Systems) for 20 minutes at 37° C. in the presence or absence of 0.2 μM Nirogacestat. 1 μg of nuclear extract was assayed in duplicate for NF-κB p65 activity by ELISA (TransAM NFκB Chemi p65, Active Motif).

[8] = 100 mg BID dose; cited from earlier work
Molp-8 MM target cells = assay: ADCC 51Cr release assay with donor NK cells; type: cell-based; settings: SEA-BCMA titrations, 0.2 μM Nirogacestat vs without, NK:target 10:1, 4h, FcγRIII V/V donor
Experimental: Whether the enhanced FcγRIII signaling translated to increased lysis of MM target cells by SEA-BCMA was determined. Molp-8 MM target cells were incubated with and without 0.2 μM Nirogacestat (purchased from SelleckChem) for 24 hrs. Cells were then Na2 [^51Cr] O4 labeled and added to titrations of SEA-BCMA, or isotype antibody control. Effector cells, NK cells enriched from normal donor PBMC, were added at an effector-to-target cell ratio of 10:1 (50,000:5000). Donor NK cells were of the high affinity FcγRIII V/V genotype. The combination of antibodies, NK cells and target cells were incubated for 4h at 37° C. with and without Nirogacestat. The radioactivity released into the culture supernatant of lysed target cells was then measured and the percent specific cell lysis calculated. […] This is the primary of mechanism of action of SEA-BCMA and translates to specific enhanced anti-MM lysis. It is expected that this will translate to improvements in anti-MM activity in the clinic when SEA-BCMA is combined with GSIs.

U266 = assay: BCMA expression by flow cytometry after Nirogacestat incubation; type: cell-based; settings: 0.2 μM Nirogacestat, 24 hrs
FcγRIII = FcγRIII (Homo sapiens, UniProt P08637); assay: FcγRIII binding affinity versus fucosylated anti-BCMA antibodies; settings: in comparison to fucosylated anti-BCMA antibodies
Chain of FcγRIII (P08637 17-254): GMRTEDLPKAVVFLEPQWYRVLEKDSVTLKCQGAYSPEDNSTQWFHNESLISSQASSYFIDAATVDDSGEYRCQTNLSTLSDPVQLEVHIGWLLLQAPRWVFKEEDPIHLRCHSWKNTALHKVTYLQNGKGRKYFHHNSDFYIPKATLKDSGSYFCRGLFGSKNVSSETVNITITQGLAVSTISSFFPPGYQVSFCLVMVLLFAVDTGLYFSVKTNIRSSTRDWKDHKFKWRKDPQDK

[9] = patients receiving nirogacestat

Experimental for patients with RRMM: This study evaluated the safety and antitumor activity of SEA-BCMA in patients with RRMM.
The monotherapy dose-escalation portion of the trial was conducted in approximately 25 patients.
Enrollment in this study occurred on a cohort-by-cohort basis. Multiple cohorts were treated at each dose level, with a maximum of 4 patients treated per cohort. Decisions on dose escalation and subsequent cohort size were made in consultation with the safety monitoring committee (SMC) after completion of each cohort. […] In addition, as a precaution, for the first 2 patients in the study there was a 72-hour observation period before the next patient can be dosed. At dose levels above Dose Level 1, a 24-hour observation period was required after the first patient received their first dose of SEA-BCMA, prior to dosing subsequent patients at that dose level. […] Patients who were considered not evaluable for DLT during Cycle 1 were replaced. […] The MTD or optimal dose was estimated based on data from all patients across all evaluated doses.
SEA-BCMA was initially administered once every 2 weeks (q2wk) in 4-week cycles at the planned doses shown in Table 2; a dosing interval of every 4 weeks (q4wk) was explored.
To further characterize the safety and antitumor activity of SEA-BCMA, an expansion cohort of up to approximately 40 patients were enrolled.
The DLT-evaluation period was the first cycle of treatment. […] In the event of a Grade 3 IRR in ≥20% of patients (i.e., 2 or more in the first 10 patients), all subsequent patients will require premedication and/or modification of infusion approach per the recommendation of the SMC.

C[C@H](NC(=O)Cc1cc(F)cc(F)c1)C(=O)N[C@H](C(=O)OC(C)(C)C)c1ccccc1 [DAPT]
BCMA expression (NCI-H929 cells [1]): increased BCMA expression
BCMA expression (Molp-8 cells [2]): increased BCMA expression
FcγRIII signaling (NCI-H929 cells [3]): increased FcγRIII signaling
FcγRIII signaling (Molp-8 cells [4]): increased FcγRIII signaling

CCC[C@H](N[C@H]1CCc2cc(F)cc(F)c2C1)C(=O)Nc1cn(C(C)(C)CNCC(C)(C)C)cn1 [nirogacestat, (S)-2-(((S)-6,8-difluoro-1,2,3,4-tetrahydronaphthalen-2-yl)amino)-N-(1-(2-methyl-1-(neopentylamino)propan-2-yl)-1H-imidazol-4-yl)pentanamide]
Events of diarrhea (patients; [9]): commonly reported
Events of skin rash (patients; [9]): reported
Follicular cysts (patients; phase 2 study in desmoid patients conducted by the NCI (O'Sullivan Coyne, 2018)): observed
BCMA expression (Multiple myeloma cells [5]): increased BCMA expression
ADCC (Multiple myeloma cells [6]): increased ADCC
NF-κB p65 signaling (RLU) ([7]; 0.2 μM Nirogacestat 16 hrs serum-starved, +/- 1 μg/ml APRIL 20 minutes): increased NF-κB signaling
Cmin at steady-state [8]: 232 ng/mL and 471 nM
ADCC (percent specific cell lysis) (Molp-8 MM target cells): Increased ADCC
BCMA expression (U266): increased BCMA expression

SEA-BCMA: non-fucosylated monoclonal anti-BCMA antibody, heavy chain SEQ ID NO: 13, light chain SEQ ID NO: 15
FcγRIII binding affinity (FcγRIII): enhanced
Delayed-onset infusion-related reactions (IRRs) (patients with RRMM; dose escalation cohort): no instances
Safety profile at high doses (patients with RRMM; high doses, e.g. 800 mg or 1600 mg per dose, initial results): tolerable safety profile
MTD in dose escalation (patients with RRMM; human, in vivo): without exceeding MTD
Block of NF-κB signaling increased by Nirogacestat ([7]; 20 μg/mL SEA-BCMA, 0.2 μM Nirogacestat, +/- 1 μg/ml APRIL): partially blocked
